Source: ChEMBL document CHEMBL1671792, “Conformationally constrained farnesoid X receptor (FXR) agonists: heteroaryl replacements of the naphthalene” (Bioorg Med Chem Lett, 2011)
In brackets after ≈: the same amount, converted by molar mass. Activity calls are given as the source filed them. The rule behind the calls is not given here.

What was measured:
Mus musculus [1] = experiment: Antidiabetic activity in diet-induced obese mouse assessed as serum insulin level at 10 mg/kg, po for 4 weeks (reference value: […]); format: functional
Mus musculus [2] = experiment: Antidiabetic activity in diet-induced obese mouse assessed as total cholesterol level at 10 mg/kg, po for 4 weeks (reference value: 140.0 +/-2.8 mg/dL); format: functional
Mus musculus [3] = experiment: Antidiabetic activity in diet-induced obese mouse assessed as triglyceride level at 10 mg/kg, po for 4 weeks (reference value: 54.4 +/-1.5 mg/dL); format: functional
Mus musculus [4] = experiment: Antidiabetic activity in diet-induced obese mouse assessed as glycerol level at 10 mg/kg, po for 4 weeks (reference value: 11.0 +/-1.3 mg/dL); format: functional
Mus musculus [5] = experiment: Antidiabetic activity in diet-induced obese mouse assessed as serum glucose level at 30 mg/kg, po for 4 weeks (reference value: 316.5 +/-13.2 mg/dL); format: functional
Mus musculus [6] = experiment: Antidiabetic activity in diet-induced obese mouse assessed as serum insulin level at 30 mg/kg, po for 4 weeks (reference value: […]); format: functional
Mus musculus [7] = experiment: Antidiabetic activity in diet-induced obese mouse assessed as beta-hydroxybutyrate level at 30 mg/kg, po for 4 weeks (reference value: 1.7 +/-0.1 mg/dL); format: functional
Mus musculus [8] = experiment: Antidiabetic activity in diet-induced obese mouse assessed as serum glucose level at 100 mg/kg, po for 4 weeks (reference value: 316.5 +/-13.2 mg/dL); format: functional
Mus musculus [9] = experiment: Antidiabetic activity in diet-induced obese mouse assessed as total cholesterol level at 100 mg/kg, po for 4 weeks (reference value: 140.0 +/-2.8 mg/dL); format: functional
Mus musculus [10] = experiment: Antidiabetic activity in diet-induced obese mouse assessed as NEFA level at 100 mg/kg, po for 4 weeks (reference value: 0.46 +/-0.02 mEq/dL); format: functional
Mus musculus [11] = experiment: Antidiabetic activity in diet-induced obese mouse assessed as beta-hydroxybutyrate level at 100 mg/kg, po for 4 weeks (reference value: 1.7 +/-0.1 mg/dL); format: functional
Bile acid receptor = molecular target: T1, Bile acid receptor (Homo sapiens, UniProt Q96RI1); experiment: Agonist activity at human FXR LBD assessed as SRC1 peptide recruitment by FRET assay; format: functional
T1 sequence (Q96RI1 whole entry): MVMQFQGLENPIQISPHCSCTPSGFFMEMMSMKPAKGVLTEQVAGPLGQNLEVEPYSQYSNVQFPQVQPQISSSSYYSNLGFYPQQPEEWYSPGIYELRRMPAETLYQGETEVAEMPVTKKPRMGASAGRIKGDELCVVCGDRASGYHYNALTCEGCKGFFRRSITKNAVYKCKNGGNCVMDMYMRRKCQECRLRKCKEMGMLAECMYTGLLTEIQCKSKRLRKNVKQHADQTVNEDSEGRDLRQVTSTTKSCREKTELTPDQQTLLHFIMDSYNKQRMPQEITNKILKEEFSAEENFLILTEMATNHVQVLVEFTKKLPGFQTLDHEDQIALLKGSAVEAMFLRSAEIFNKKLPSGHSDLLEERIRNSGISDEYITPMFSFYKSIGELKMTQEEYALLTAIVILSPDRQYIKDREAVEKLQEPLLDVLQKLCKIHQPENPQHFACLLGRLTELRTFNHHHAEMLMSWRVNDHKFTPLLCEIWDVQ

[12] = molecular target: T2, Bile acid receptor (Homo sapiens) (UniProt Q96RI1); experiment: Agonist activity at human FXR LBD assessed as SRC1 peptide recruitment by FRET assay relative to GW 4064; format: functional
T2 sequence (whole entry): T1 sequence (Q96RI1 whole entry)

[13] = molecular target: T2, Bile acid receptor (Homo sapiens); experiment: Agonist activity at human FXR LBD iexpressed in monkey CV-1 cells assessed as transactivation of luciferase reporter gene expression relative to GW 4064; format: functional, cell-based; set-up: concentration or dose not given beside the values
[14] = Half life in iv dosed cynomolgus monkey; format: ADME, organism-based, Macaca fascicularis; conditions: in vivo
[15] = Clearance in iv dosed Beagle dog; format: ADME, organism-based, Canis lupus familiaris; conditions: in vivo
[16] = Clearance in iv dosed cynomolgus monkey; format: ADME, organism-based, Macaca fascicularis; conditions: in vivo
[17] = Volume of distribution at steady state in iv dosed mouse; format: ADME, organism-based; conditions: in vivo, read-out: Vdss
[18] = Oral bioavailability in cynomolgus monkey; format: ADME, organism-based, Macaca fascicularis; conditions: in vivo
Mus musculus [19] = experiment: Dose normalized AUC in orally dosed mouse; format: ADME, organism-based; conditions: in vivo, po
Canis familiaris = experiment: Dose normalized AUC in orally dosed Beagle dog; format: ADME, organism-based, Canis lupus familiaris; conditions: in vivo, po
Cytochrome P450 2D6 = Cytochrome P450 2D6 (Homo sapiens, UniProt P10635); experiment: Inhibition of CYP2D6 in human liver microsome; format: microsomes
Chain of Cytochrome P450 2D6 (P10635 whole entry): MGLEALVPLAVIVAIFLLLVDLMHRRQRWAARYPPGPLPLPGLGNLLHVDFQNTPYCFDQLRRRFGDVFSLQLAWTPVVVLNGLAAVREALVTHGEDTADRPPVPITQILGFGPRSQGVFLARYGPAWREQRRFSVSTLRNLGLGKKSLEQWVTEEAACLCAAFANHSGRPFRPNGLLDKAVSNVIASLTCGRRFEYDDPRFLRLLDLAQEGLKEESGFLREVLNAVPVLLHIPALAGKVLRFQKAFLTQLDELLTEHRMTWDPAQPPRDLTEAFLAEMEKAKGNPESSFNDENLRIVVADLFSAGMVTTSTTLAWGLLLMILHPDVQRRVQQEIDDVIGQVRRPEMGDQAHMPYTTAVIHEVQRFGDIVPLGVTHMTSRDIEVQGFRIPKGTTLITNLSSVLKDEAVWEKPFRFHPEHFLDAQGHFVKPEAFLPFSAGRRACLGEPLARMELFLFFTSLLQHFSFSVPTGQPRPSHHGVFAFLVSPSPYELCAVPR

Homo sapiens [20] = organism: Homo sapiens; experiment: Selectivity ratio of EC50 for human FXR to EC50 for human LRH
Homo sapiens [21] = organism: Homo sapiens; experiment: Selectivity ratio of EC50 for human FXR to EC50 for human LXRalpha
Homo sapiens [22] = organism: Homo sapiens; experiment: Selectivity ratio of EC50 for human FXR to EC50 for human PPARalpha
Homo sapiens [23] = organism: Homo sapiens; experiment: Selectivity ratio of EC50 for human FXR to EC50 for human PPARdelta
Homo sapiens [24] = organism: Homo sapiens; experiment: Selectivity ratio of EC50 for human FXR to EC50 for human RXRalpha
[25] = Solubility of compound in fasted state-simulated intestinal fluid at pH 6.5; format: physicochemical; conditions: simulated gi fluid
[26] = molecular target: T2, Bile acid receptor (Homo sapiens); experiment: Binding affinity to human FXR by X-ray crystallography
Mus musculus [27] = experiment: Antidiabetic activity in diet-induced obese mouse assessed as change in body weight at 10 mg/kg, po for 4 weeks measured after 1 week (reference value: 30.3+/-0.8 g); format: functional
Mus musculus [28] = experiment: Antidiabetic activity in diet-induced obese mouse assessed as change in body weight at 10 mg/kg, po for 4 weeks measured after 2 weeks (reference value: 30.3+/-0.8 g); format: functional
Mus musculus [29] = experiment: Antidiabetic activity in diet-induced obese mouse assessed as change in body weight at 10 mg/kg, po for 4 weeks measured after 4 weeks (reference value: 30.3+/-0.8 g); format: functional
Mus musculus [30] = experiment: Antidiabetic activity in diet-induced obese mouse assessed as change in body weight at 30 mg/kg, po for 4 weeks measured after 1 week (reference value: 29.6+/-0.9 g); format: functional
Mus musculus [31] = experiment: Antidiabetic activity in diet-induced obese mouse assessed as change in body weight at 100 mg/kg, po for 4 weeks measured after 2 weeks (reference value: 29.1+/-0.8 g); format: functional
Mus musculus [32] = experiment: Antidiabetic activity in diet-induced obese mouse assessed as change in body weight at 100 mg/kg, po for 4 weeks measured after 3 weeks (reference value: 29.1+/-0.8 g); format: functional

EC50 (Bile acid receptor): 120 nM | Activity [12]: 105% | Activity [13]: 102% | half-life [14]: 2 h | clearance [15]: 4.4 mL/min/kg | clearance [16]: 3.1 mL/min/kg | Vd [17]: 1.6 L/kg | bioavailability [18]: 15% | AUC (Mus musculus [19]): 310 ng·kg·h/mg/mL | AUC (Canis familiaris): 1260 ng·kg·h/mg/mL | IC50 (Cytochrome P450 2D6): > 33000 nM | Ratio EC50 (Homo sapiens [20]): 100 | Ratio EC50 (Homo sapiens [21]): 100 | Ratio EC50 (Homo sapiens [22]): 100 | Ratio EC50 (Homo sapiens [23]): 100 | Ratio EC50 (Homo sapiens [24]): 100 | solubility [25]: 1 ng/mL (≈ 1.87 nM) | Activity [26]: Active
SMILES: CC(C)c1onc(-c2c(Cl)cccc2Cl)c1COc1ccc(-c2ccc3nc(C(=O)O)ccc3c2)cc1
Activity (Mus musculus [1]): 0.63 ng/mL | Activity (Mus musculus [2]): 108.5 mg/dL | Activity (Mus musculus [3]): 55.8 mg/dL | Activity (Mus musculus [4]): 10.8 mg/dL | Activity (Mus musculus [5]): 282.2 mg/dL | Activity (Mus musculus [6]): 0.58 ng/mL | Activity (Mus musculus [7]): 1.8 mg/dL | Activity (Mus musculus [8]): 241.4 mg/dL | Activity (Mus musculus [9]): 87.9 mg/dL | Activity (Mus musculus [10]): 0.65 mEq/dL | Activity (Mus musculus [11]): 3.3 mg/dL | Activity (Mus musculus [27]): 29.4 g | Activity (Mus musculus [28]): 29.3 g | Activity (Mus musculus [29]): 29 g | Activity (Mus musculus [30]): 28.4 g | Activity (Mus musculus [31]): 23.2 g | Activity (Mus musculus [32]): 24.1 g
